For assay [1], the system named is FMAL-actin/TMR-cC0-C2 interaction. As to the kind of experiment: FLT-FRET concentration-response assay, FMAL-actin plus TMR-cC0-C2. As to conditions: unphosphorylated cC0-C2. It counts as binding, human. The method in brief:
(§1)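 Hits tested at eight concentrations (0.5–100 μM) and read on a high-throughput fluorescence lifetime plate reader. Hill fits applied only under certain conditions.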

In assay [2] the test system is FMAL-actin plus TMR-cC0-C2. As to the kind of experiment: Selleck library HTS, 473 nm excitation (FLT of FMAL-actin with TMR-cC0-C2, FLT-FRET). It counts as binding, human. The method in brief:
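Donor fluorescence lifetime was then recorded. Waveforms were fit to a single exponential, and ΔFLT was obtained after a moving-median plate-gradient correction (half-row window), rescaled by the median DMSO lifetime.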

Assay [3] relates to bovine cardiac (left ventricular) myofibrils. As to the kind of experiment: Cardiac myofibril ATPase assay. The conditions noted are these: 50 μM compound, pCa 8 to pCa 4. Format: biochemical. How it is done:
Rabbit psoas and bovine cardiac myofibrils were prepared as described in our previous study ([17]). An enzyme-coupled, NADH-linked ATPase assay was used to measure skeletal and cardiac myofibril ATPase activity in 96-well microplates at 23 °C. Ionic strength was maintained below 0.2 M, so myofilaments remained insoluble and stable ([32]). To achieve optimal enzymatic activities, buffers for skeletal and cardiac myofibrils differed slightly ([33], [34]): skeletal in 50 mM MOPS, 100 mM KCl, 5 mM MgCl2, 1 mM EGTA, pH 7.0; cardiac in 20 mM MOPS, 35 mM NaCl, 5 mM MgCl2, 1 mM EGTA, pH 7.0. Each well in the microplate contained an assay mix of 0.84 mM phosphoenolpyruvate, 0.17 mM NADH, 10 U/vol pyruvate kinase, 20 U/vol lactate dehydrogenase. The concentration of free Ca^2+ was controlled by EGTA buffering ([35]). Myofibrils were dispensed in microplates with a multichannel pipette and were incubated with assay mix plus compound of interest for 20 min at 23 °C. The concentration of myofibrils used was 0.01 mg/ml for skeletal and 0.05 mg/ml for cardiac myofibrils. The assay was started upon the addition of ATP, at a final concentration of 2.1 mM (total volume to 200 μl), and absorbance was recorded at 340 nm in a SpectraMax Plus microplate spectrophotometer from Molecular Devices. The steady-state myofibrillar ATPase rate was measured from NADH oxidation, measured as the rate of decrease in absorption at 340 nm for 30 min, with absorption data collected every 15 s. All data and statistical analysis of steady-state kinetics were conducted with the OriginPro program. The results were fitted with the Hill equation:(6) […] is the ATPase rate and n is the Hill coefficient. ATPase activity is reported on the μmol ATP/mg protein/min scale. Average data are presented as mean ± SD. Sample means are derived from three different myofibril preps (N = 3), each done in duplicate (n = 6). The effects of compounds on ATPase activity of myofibrils were determined in the presence of 50 μM compound, across a 12-point pCa range from 4.0 (activation) to 8.0 (relaxation). The calcium sensitivity (pCa50) was determined by fitting the curves to the Hill equation. […] The normalized ATPase activity of the selected compounds can be found in Figure 6.

For assay [4], the system named is PKA-phosphorylated TMR-cC0-C2 (cC0-C2#P). As to the kind of experiment: FLT-TMR concentration-response assay, PKA-phosphorylated cC0-C2. It counts as binding, human. The conditions noted are these: 60 μM compound. In outline: as §1

*1 amine or outer side, *2 acyl side, *3 side chain or, on linkers, in order; H or OH if unused. Where a SMILES comes first, the peptide text is derived from it. Bridges are numbered along the chain shown (N, C = ends). [ ]: non-standard residue; d: D form. The star is where a group is joined. Orn(4R-OH,5R-OH) = O=C([C@H](C[C@@H](O)[C@@H](O)N[*:3])N[*:1])[*:2]; Tetradecanoyl(10R,12S-Me2) = CC[C@H](C)C[C@H](C)CCCCCCCCC(=O)*; hTyr(3S-OH,4S-OH) = N[C@H](C(=O)O)[C@H](O)[C@@H](O)c1ccc(O)cc1; Gln(3R-OH) = NC(=O)C[C@@H](O)[C@H](N)C(=O)O; Pro(3S-OH) = O=C(O)[C@H]1NCC[C@@H]1O; Hyp = O=C(O)[C@@H]1C[C@@H](O)CN1

As to `CC[C@H](C)C[C@H](C)CCCCCCCCC(=O)N[C@H]1C[C@@H](O)[C@@H](O)NC(=O)[C@@H]2[C@@H](O)CCN2C(=O)[C@H]([C@H](O)CC(N)=O)NC(=O)[C@H]([C@H](O)[C@@H](O)c2ccc(O)cc2)NC(=O)[C@@H]2C[C@@H](O)CN2C(=O)[C@H]([C@@H](C)O)NC1=O` [Pneumocandin B0] ({Tetradecanoyl(10R,12S-Me2)}-[Orn(4R-OH,5R-OH)]T[Hyp][hTyr(3S-OH,4S-OH)][Gln(3R-OH)][Pro(3S-OH)]; lactam 1-C), the “effect on FLT-FRET / binding between FMAL-actin and TMR-cC0-C2 (in words)” value in assay [1] is “increased the binding”. In assay [2] (initial screen, 30 μM compound), the “473-nm Δτ, Repeat 1” value is -0.050 ns and the “473-nm Δτ, Repeat 2” value is -0.053 ns. Also, the “473-nm z-score (based on avg Δτ)” value in assay [2] (robust z-score, hit threshold ±4, 30 μM compound) is listed as -2.83. Besides, the “effect on cardiac MF ATPase activity (in words)” value in assay [3] is recorded as “ATPase-activating effect”. The “cC0-C2#P FLT change (% change from DMSO, FLT of TMR-MyBP-C)” value in assay [4] amounted to 13.2%.

Source of the values: PMC10692721, “Drug discovery for heart failure targeting myosin-binding protein C” (The Journal of Biological Chemistry, 2023).
